Measurements taken from PMC4634243 (Influenza and Other Respiratory Viruses, 2012).

Experiments:
[1] = tested on: nuclear‐to‐cytoplasmic export of the RNP complex (NP); format: cell-based, 178 H5N1 HPAIV in MDCK cells
[2] = tested on: H5N1 influenza virus strain 178; format: cell-based, H5N1 influenza virus strain 178 in MDCK cells; settings: 12–72 h
[3] = tested on: RNP combinations of PB2, PB1, PA, and NP from influenza virus strain 178; format: cell-based, influenza virus strain 178 (H5N1), 293T cells
[4] = tested on: H5N1 influenza virus strain 178; test: organism not typed; format: cell-based, H5N1 influenza virus strain 178 in MDCK cells
purified N1‐type NA = purified N1‐type NA (Influenza A virus, UniProt P03468); format: biochemical
[5] = tested on: H5N1‐HIV pseudoviruses (HA of A/Qinghai/59/2005(H5N1), NA of A/Thailand/Kan353/2004); format: cell-based, H5N1 pseudovirus in MDCK cells
[6] = tested on: influenza virus type A, A/Chicken/GuangDong/178/2004 (H5N1, 178)

purified N1‐type NA, sequence (P03468 whole entry): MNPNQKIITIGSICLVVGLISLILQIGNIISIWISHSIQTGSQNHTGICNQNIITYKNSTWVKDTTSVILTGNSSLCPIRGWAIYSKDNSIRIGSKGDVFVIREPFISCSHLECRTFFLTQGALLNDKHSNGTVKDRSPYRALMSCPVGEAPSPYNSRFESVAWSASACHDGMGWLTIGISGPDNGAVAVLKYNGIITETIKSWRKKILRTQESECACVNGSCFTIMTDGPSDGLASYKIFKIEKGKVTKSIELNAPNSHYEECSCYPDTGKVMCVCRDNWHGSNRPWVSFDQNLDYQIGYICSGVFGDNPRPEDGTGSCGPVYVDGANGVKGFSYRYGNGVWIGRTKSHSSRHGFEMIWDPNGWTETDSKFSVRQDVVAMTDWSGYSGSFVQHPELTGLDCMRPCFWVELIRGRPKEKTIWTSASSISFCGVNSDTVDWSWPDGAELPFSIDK

With `O=c1cc(N2CCOCC2)oc2c(-c3ccccc3)cccc12` [LY294002, reference compound] the “distribution of NP protein at 12, 24, and 48 h p.i.” value [1] was “the protein was still in the nucleus”.
`O[C@H]1[C@H]2c3cc4c(cc3CN3CCC(=C[C@@H]1O)[C@H]23)OCO4` [AA1, lycorine] was tested, and the “HA titer, cultured with DMEM‐containing compounds (protocol 4, 5, 7)” value [2] was “no HA titer was detected”, the “luciferase activities (RNP activity) compared with no treatment” value [3] was “slightly higher luciferase activities” and the “inhibitory activity when added at time intervals 5 min–1 h, 15 min–1 h, 30 min–1 h, 1–2 h, 2–4 h, or 4–8 h” value [4] was “not significant”. The “inhibitory effect against virus, time of addition” value [4] was “observed after a single round of replication (12 h p.i.)”, the inhibition at 52 µM ([4]; read-out: virus inhibited (HA titer)) was ~50% and the “inhibitory activity on the N1‐type neuraminidase” value (purified N1‐type NA) was “did not exhibit significant inhibitory activity”. The “prevention of binding and internalizing of H5N1 pseudovirions into MDCK cells” value [5] was “neither AA1 nor AA3 could prevent”, the “location of NP protein at 48 h p.i. (multi‐round replication)” value [1] was “NP protein was exported to cytoplasm” and the “migration of the RNP complex from the nucleus to cytoplasm, early and middle stages of the replication cycle (0–6 h)” value [1] was “affected migration of the RNP complex from the nucleus to cytoplasm”. For the same molecule, the “time for which antiviral activity (block in vRNP nuclear export) was retained” value [1] was “up to 24 h”, the CC50 (MDCK cells) was 20·9 ± 0·07 μM and the “SI (CC50/EC50)” value [6] was >45.
